# Molecular target: T1, membrane-bound hydrogenase (MBH, HydABC) (Sulfurospirillum multivorans, UniProt A0AA86ALJ1+A0AA86ANH9+A0AA86DZD7)
# T1 construct: gene hydB; HydA TAT signal peptide cleaved; predicted HydB 62, HydA 34, HydC 26 kDa; dimer of heterotrimers, about 270 kDa; with Periplasmic [NiFe] hydrogenase, large subunit
# T1 sequence (A0AA86DZD7 1-561): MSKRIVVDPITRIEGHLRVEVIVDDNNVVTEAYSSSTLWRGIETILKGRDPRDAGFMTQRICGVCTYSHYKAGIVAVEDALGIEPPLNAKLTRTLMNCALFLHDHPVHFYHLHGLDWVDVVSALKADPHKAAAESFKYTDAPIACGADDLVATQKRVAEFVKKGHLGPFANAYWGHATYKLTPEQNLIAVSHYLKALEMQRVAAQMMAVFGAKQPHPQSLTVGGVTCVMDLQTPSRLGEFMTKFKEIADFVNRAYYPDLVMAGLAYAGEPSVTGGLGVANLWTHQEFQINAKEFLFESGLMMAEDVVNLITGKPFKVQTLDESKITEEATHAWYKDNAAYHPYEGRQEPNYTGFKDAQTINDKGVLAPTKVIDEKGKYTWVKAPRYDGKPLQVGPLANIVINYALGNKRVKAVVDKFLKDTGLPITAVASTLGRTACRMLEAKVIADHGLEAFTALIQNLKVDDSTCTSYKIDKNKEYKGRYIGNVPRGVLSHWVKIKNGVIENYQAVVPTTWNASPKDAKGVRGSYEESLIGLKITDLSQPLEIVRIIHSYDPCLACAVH
# T1 sequence (A0AA86ALJ1 68-385): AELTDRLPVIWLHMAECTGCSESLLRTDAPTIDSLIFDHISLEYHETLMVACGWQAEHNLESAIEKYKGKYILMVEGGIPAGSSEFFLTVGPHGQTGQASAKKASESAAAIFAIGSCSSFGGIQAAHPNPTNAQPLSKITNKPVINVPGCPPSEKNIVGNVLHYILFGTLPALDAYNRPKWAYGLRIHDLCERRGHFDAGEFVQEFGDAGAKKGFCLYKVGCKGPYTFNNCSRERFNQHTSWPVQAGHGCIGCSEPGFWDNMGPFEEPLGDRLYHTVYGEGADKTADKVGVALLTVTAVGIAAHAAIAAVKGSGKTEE
# T1 sequence (A0AA86ANH9 1-225): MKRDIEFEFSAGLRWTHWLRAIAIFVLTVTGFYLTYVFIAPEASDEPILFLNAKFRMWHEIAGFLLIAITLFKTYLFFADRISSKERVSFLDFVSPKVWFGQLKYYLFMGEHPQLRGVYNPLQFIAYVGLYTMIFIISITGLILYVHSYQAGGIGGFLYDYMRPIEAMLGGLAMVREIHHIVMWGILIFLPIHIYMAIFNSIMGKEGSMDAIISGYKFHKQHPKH
# Test: spectrophotometric H2-dependent DMN reduction, […] nm minus […] nm
# Type: biochemical
# Conditions: H2 as electron donor; 0.2 mM DMN; 50 mM glycylglycine pH 8.0; 0.5 mM DTT; electron acceptor, presumably via HydC cytochrome b; partially purified enzyme
compound,measurement,value
"CC1=C(C)C(=O)c2ccccc2C1=O [DMN, 2,3-dimethyl-1,4-naphthoquinone]","spectrophotometric H2-dependent DMN reduction, 270 nm minus 290 nm",both fractions showed activity with DMN as electron acceptor

# From paper PMC5357620, “The NiFe Hydrogenases of the Tetrachloroethene-Respiring Epsilonproteobacterium Sulfurospirillum multivorans: Biochemical Studies and Transcription Analysis” (Frontiers in Microbiology, 2017)
